Laboratory results as given in patent EP0008361A1, “Halogen-substituted thiophene derivatives and method for their preparation” (priority 1978, dated 1980).
Read-outs that look alike come from different tables or passages of the source.

What was measured:
[1] = tested on: Spinnmilben (Tetranychus telarius); experiment: whole plant or invertebrate; details: 144 h, read-out: Mortalitätsrate
Blattläuse (Aphis fabae) = details: evaluated after 24 hours
[2] = tested on: Stubenfliegen-Larven (Musca domestica); experiment: Breeding test with housefly larvae on treated nutrient medium; assay type: in vivo; details: development observed over one week; for mortality at 10 µg/mL / mortality at 25 µg/mL: Musca domestica, 168 h, read-out: Mortalitätsrate; for mortality at 10 µg/mL: Wirkstoffkonzentration 10 ppm; for mortality at 25 µg/mL: Wirkstoffkonzentration 25 ppm; for Mortalitätsrate: Wirkstoffkonzentration 50 ppm
Procedure: Zuchtversuch mit Stubenfliegen-Larven (Musca domestica)
50 g eines Nährbodens aus Bäckerhefe, Trockenmilch, Wasser und Agar werden in warmem Zustand gründlich mit der wäßrigen Wirkstoffaufbereitung gemischt.
Nach dem Erkalten belegt man den Nährboden mit ca. 0,1 ml Fliegeneiern und beobachtet deren Entwicklung über eine Woche.

[3] = tested on: Moskito-Larven (Aedes aegypti); experiment: whole plant or invertebrate; details: 24 h, read-out: Mortalitätsrate
[4] = tested on: Wurzelgallennemathoden (Meloidogyne incognita); experiment: Action on root-knot nematodes, drench of tomato plants in infested compost soil; assay type: in vivo; details: 30 ml drench, roots rated after 6 to 8 weeks
Procedure: Wirkung auf Wurzelgallennemathoden (Meloidogyne incognita)
Junge Tomatenpflanzen werden in je 500 g Komposterde gepflanzt, die stark mit Wurzelgallennematoden infiziert ist.
Nach 3 Tagen erfolgt die Behandlung mit der wäßrigen Wirkstoffaufbereitung durch Gießen von 30 ml Aufbereitung.
Nach 6 bis 8 Wochen bonitiert man die Wurzeln auf Gallenbildung.

[5] = tested on: Spinnmilben (Tetranychus telarius); details: assessed after 6 days
[6] = tested on: Moskito-Larven (Aedes aegypti); details: Wirkstoffkonzentration 1 ppm; 4th instar larvae, 20°C, after 24 hours
[7] = Wirkstoffkonzentration 0,05 (unit not given)

Row | SMILES | mortality at 0.02 % [1] [%] | mortality at 0.05 % [1] [%] | Mortalitätsrate (Blattläuse (Aphis fabae); [7]) | mortality at 10 µg/mL [2] [%] | mortality at 25 µg/mL [2] [%] | Gallenbildung ([4]; Wirkstoffkonzentration 0,1 %) | Mortalitätsrate [6] | Mortalitätsrate [2] | other results
1 | CCOP(=O)(SCc1csc(Cl)c1Cl)SCC(C)C (stereo not drawn) [Wirkstoff I, O-Äthyl-S-isobutyl-S-(2,3-dichlor-thienyl-4-methyl)-dithiophosphat] | 100 | 100 | 100% | 80 | 100 | – | – | – | Mortalitätsrate (Blattläuse (Aphis fabae); Wirkstoffkonzentration 0,02 (unit not given)): 90%
2 | CCOP(=O)(SCc1csc(Cl)c1Cl)SC(C)CC (stereo not shown) [Wirkstoff III] | 100 | 100 | – | 100 | 100 | – | – | – | mortality at 0.25 µg/mL [3]: 100%; mortality at 0.5 µg/mL [3]: 100%; mortality at 1 µg/mL [3]: 100%; mortality at 0.01 % [1]: 100%; Gallenbildung ([4]; Wirkstoffkonzentration 0,05 %): keine Gallenbildung
3 | CNC(=O)CSP(=S)(OC)OC [Wirkstoff V1, 0,0-Dimethyl-S-(N-methyl-carbamoylmethyl)-phosphordi-thioat] | – | – | – | – | – | unwirksam | – | – | –
4 | CCOP(=S)(OCC)SCc1ccsc1 [Wirkstoff V2, 0,0-Diäthyl-S-(tienyl-4-methyl)-dithiophosphat, reference compound] | – | – | unwirksam | – | – | unwirksam | unwirksam | unwirksam | Mortalitätsrate ([5]; Wirkstoffkonzentration 0,05 %): unwirksam; mortality at 0.1 % [1]: 80%
5 | CCOP(=S)(OCC)SCc1csc(Cl)c1Cl [Wirkstoff V3, 0,0-Diäthyl-S-(2,3-dichlor-thienyl-4-methyl)-dithiophosphat] | – | – | – | – | – | – | unwirksam | unwirksam | Mortalitätsrate ([5]; Wirkstoffkonzentration 0,1 %): unwirksam
